# Measurements as given in patent US11427567B2, “Imidazolyl pyrimidinylamine compounds as CDK2 inhibitors” (Incyte Corporation, priority 2019, dated 2022).
# Molecular target: CDK2/Cyclin E1 (Homo sapiens (Human), UniProt P24941)
# Test: CDK2/Cyclin E1 HTRF enzyme activity assay (Example A)
# Format: biochemical
# Settings: 1 mM ATP
# Experimental: Assays were conducted in white 384-well polystyrene plates in a final reaction volume of 8 μL. […] HTRF signals were read after 1 hour at room temperature on a PHERAstar FS plate reader (BMG Labtech). Data was analyzed with IDBS XLFit and GraphPad Prism 5.0 software using a three or four parameter dose response curve to determine IC50 for each compound.
row,Structure (SMILES),IC50
1,"Cc1c(-c2nc(NC3CCN(S(C)(=O)=O)CC3)ncc2C(F)(F)F)ncn1C [Example 15, 4-(1,5-Dimethyl-1H-imidazol-4-yl)-N-(1-(methylsulfonyl)piperidin-4-yl)-5-(trifluoromethyl)pyrimidin-2-amine]",50 to 200 nM
2,"CS(=O)(=O)N1CC[C@H](Nc2ncc(C(F)(F)F)c(-c3cn(-c4ccccc4C#N)cn3)n2)[C@H](F)C1 [Example 472, 2-(4-(2-(((3R,4S)-3-Fluoro-1-(methylsulfonyl)piperidin-4-yl)amino)-5-(trifluoromethyl)pyrimidin-4-yl)-1H-imidazol-1-yl)benzonitrile]",≤ 50 nM
3,"Cn1cc(-c2nc(NC3CCN(S(C)(=O)=O)CC3)ncc2C(F)(F)F)nc1CC(C)(C)O [Example 18, 2-Methyl-1-(1-methyl-4-(2-((1-(methylsulfonyl)piperidin-4-yl)amino)-5-(trifluoromethyl)pyrimidin-4-yl)-1H-imidazol-2-yl)propan-2-ol]",≤ 50 nM
4,"CS(=O)(=O)N1CCC(Nc2ncc(C(F)(F)F)c(-c3cn(-c4cccc(Cl)c4Cl)cn3)n2)CC1 [Example 60, 4-(1-(2,3-Dichlorophenyl)-1H-imidazol-4-yl)-N-(1-(methylsulfonyl)piperidin-4-yl)-5-(trifluoromethyl)pyrimidin-2-amine]",≤ 50 nM
5,"CC(C)(O)CCOc1ccc(-n2cnc(-c3nc(NC4CCN(S(C)(=O)=O)CC4)ncc3C(F)(F)F)c2)c(C(F)(F)F)n1 [Example 71, 2-Methyl-4-((5-(4-(2-((1-(methylsulfonyl)piperidin-4-yl)amino)-5-(trifluoromethyl)pyrimidin-4-yl)-1H-imidazol-1-yl)-6-(trifluoromethyl)pyridin-2-yl)oxy)butan-2-ol]",≤ 50 nM
6,"CN1CCN(Cc2ccc(-n3cnc(-c4nc(NC5CCN(S(C)(=O)=O)CC5)ncc4C(F)(F)F)c3)c(Cl)c2)C1=O [Example 453, 1-(3-Chloro-4-(4-(2-((1-(methylsulfonyl)piperidin-4-yl)amino)-5-(trifluoromethyl)pyrimidin-4-yl)-1H-imidazol-1-yl)benzyl)-3-methylimidazolidin-2-one]",≤ 50 nM
7,"CNCc1cccc(-n2cnc(-c3nc(NC4CCN(S(C)(=O)=O)CC4)ncc3C(F)(F)F)c2)c1C(F)(F)F [Example 378, 4-(1-(3-((Methylamino)methyl)-2-(trifluoromethyl)phenyl)-1H-imidazol-4-yl)-N-(1-(methylsulfonyl)piperidin-4-yl)-5-(trifluoromethyl)pyrimidin-2-amine]",≤ 50 nM
8,"CC(c1cccc(-n2cnc(-c3nc(NC4CCN(S(C)(=O)=O)CC4)ncc3C(F)(F)F)c2)c1Cl)N1CCC1 (centres unmarked) [Example 469, 4-(1-(3-(1-(Azetidin-1-yl)ethyl)-2-chlorophenyl)-1H-imidazol-4-yl)-N-(1-(methylsulfonyl)piperidin-4-yl)-5-(trifluoromethyl)pyrimidin-2-amine]",≤ 50 nM
9,"C[C@@H]1CN(S(=O)(=O)c2cn(C)cn2)CC[C@@H]1Nc1ncc(C(F)(F)F)c(-c2cn(-c3cccc(C#N)c3Cl)cn2)n1 [Example 155, 2-Chloro-3-(4-(2-(((3R,4S)-3-methyl-1-((1-methyl-1H-imidazol-4-yl)sulfonyl)piperidin-4-yl)amino)-5-(trifluoromethyl)pyrimidin-4-yl)-1H-imidazol-1-yl)benzonitrile]",≤ 50 nM
10,"Cc1nc(-c2nc(NC3CCN(S(C)(=O)=O)CC3)ncc2C(F)(F)F)cn1-c1ccc(CN2CCC2)cc1F [Example 281, 4-(1-(4-(Azetidin-1-ylmethyl)-2-fluorophenyl)-2-methyl-1H-imidazol-4-yl)-N-(1-(methylsulfonyl)piperidin-4-yl)-5-(trifluoromethyl)pyrimidin-2-amine]",≤ 50 nM
11,"C[C@@]1(O)CCN(CCc2cccc(-n3cnc(-c4nc(NC5CCN(S(C)(=O)=O)CC5)ncc4C(F)(F)F)c3)c2Cl)C1 [Example 374, (R)-1-(2-Chloro-3-(4-(2-((1-(methylsulfonyl)piperidin-4-yl)amino)-5-(trifluoromethyl)pyrimi-din-4-yl)-1H-imidazol-1-yl)phenethyl)-3-methylpyrrolidin-3-ol]",≤ 50 nM
12,"Cc1nc(CN2CCCCC2)ccc1-n1cnc(-c2nc(NC3CCN(S(C)(=O)=O)CC3)ncc2C(F)(F)F)c1 [Example 382, 4-(1-(2-Methyl-6-(piperidin-1-ylmethyl)pyridin-3-yl)-1H-imidazol-4-yl)-N-(1-(methylsulfonyl)piperidin-4-yl)-5-(trifluoromethyl)pyrimidin-2-amine]",≤ 50 nM
13,"Cc1nc(CN(C)C)ccc1-n1cnc(-c2nc(NC3CCN(S(C)(=O)=O)CC3)ncc2C(F)(F)F)c1 [Example 263, 4-(1-(6-((Dimethylamino)methyl)-2-methylpyridin-3-yl)-1H-imidazol-4-yl)-N-(1-(methylsulfonyl)piperidin-4-yl)-5-(trifluoromethyl)pyrimidin-2-amine]",≤ 50 nM
14,"CNC(=O)c1ccc(-n2cnc(-c3nc(NC4CCN(S(C)(=O)=O)CC4)ncc3C(F)(F)F)c2)c(Cl)c1Cl [Example 137, 2,3-Dichloro-N-methyl-4-(4-(2-((1-(methylsulfonyl)piperidin-4-yl)amino)-5-(trifluoromethyl)pyrimidin-4-yl)-1H-imidazol-1-yl)benzamide]",≤ 50 nM
15,"CC1CN(Cc2ccc(-n3cnc(-c4nc(NC5CCN(S(C)(=O)=O)CC5)ncc4C(F)(F)F)c3)c(Cl)c2)C1 [Example 177, 4-(1-(2-Chloro-4-((3-methylazetidin-1-yl)methyl)phenyl)-1H-imidazol-4-yl)-N-(1-(methylsulfonyl)piperidin-4-yl)-5-(trifluoromethyl)pyrimidin-2-amine]",≤ 50 nM
16,"C[C@@H]1CN(S(=O)(=O)c2cn(C)cn2)CC[C@@H]1Nc1ncc(C(F)(F)F)c(-c2cn(CC(F)F)cn2)n1 [Example 337, 4-(1-(2,2-Difluoroethyl)-1H-imidazol-4-yl)-N-((3R,4S)-3-methyl-1-((1-methyl-1H-imidazol-4-yl)sulfonyl)piperidin-4-yl)-5-(trifluoromethyl)pyrimidin-2-amine]",≤ 50 nM
17,"Cc1ccc(-n2cnc(-c3nc(NC4CCN(S(C)(=O)=O)CC4)ncc3C(F)(F)F)c2)c(C(F)(F)F)n1 [Example 44, 4-(1-(6-Methyl-2-(trifluoromethyl)pyridin-3-yl)-1H-imidazol-4-yl)-N-(1-(methylsulfonyl)piperidin-4-yl)-5-(trifluoromethyl)pyrimidin-2-amine]",≤ 50 nM
18,"CS(=O)(=O)N1CCC(Nc2ncc(C(F)(F)F)c(-c3cn(-c4cccc(C(O)C5CC5)c4Cl)cn3)n2)CC1 (centres unmarked) [Example 86, (2-chloro-3-(4-(2-((1-(methylsulfonyl)piperidin-4-yl)amino)-5-(trifluoromethyl)pyrimidin-4-yl)-1H-imidazol-1-yl)phenyl)(cyclopropyl)methanol]",≤ 50 nM
19,"CN(C)Cc1ccc(-n2cnc(-c3nc(NC4CCN(S(C)(=O)=O)CC4)ncc3C(F)(F)F)c2)c(Cl)c1 [Example 175, 4-(1-(2-Chloro-4-((dimethylamino)methyl)phenyl)-1H-imidazol-4-yl)-N-(1-(methylsulfonyl)piperidin-4-yl)-5-(trifluoromethyl)pyrimidin-2-amine]",≤ 50 nM
20,"CS(=O)(=O)N1CCC(Nc2ncc(C(F)(F)F)c(-c3cn(-c4cccc(CN5CC(C#N)C5)c4Cl)cn3)n2)CC1 [Example 463, 1-(2-Chloro-3-(4-(2-((1-(methylsulfonyl)piperidin-4-yl)amino)-5-(trifluoromethyl)pyrimidin-4-yl)-1H-imidazol-1-yl)benzyl)azetidine-3-carbonitrile]",≤ 50 nM
